Results published in patent US7915264B2, “Fused pyridine derivatives for use as vanilloid receptor antagonists for treating pain” (Novartis AG, priority 2001, dated 2011).

What was measured:
[1] = test system: rat model of neuropathic pain; experiment: Anti-hyperalgesic effects in a model of neuropathic pain in the rat (partial sciatic nerve ligation, paw pressure); type: in vivo; details: single dose 0.3-30 mg/kg p.o. after establishment of hyperalgesia
Description: Test: Anti-Hyperalgesic Effects in a Model of Neuropathic Pain in the Rat
The agents of invention are potent and efficacious anti-hyperalgesic agents following oral administration in the following rat model of neuropathic pain. Peripheral neuropathy is induced by partial ligation of the left sciatic nerve. Mechanical hyperalgesia is assessed from paw withdrawal thresholds measured on the ipsilateral (ligated) and contralateral (non-ligated) hindpaws using standard paw pressure methods. Drug effects are studied 11-15 days post ligation. The mean paw withdrawal threshold±s.e.m. for the left (ligated) paw is compared to that of the right (non-ligated) paw.
The agents of invention are administered, e.g. orally in 20% cremophor/water in a volume of 1 ml. The post-drug percentage hyperalgesia values are obtained by comparison to the pre-drug value for the right (non-ligated) paw; this enables a true measure of the reduction in hyperalgesia to be obtained without the added complication of any drug effects on the right paw. […] The agents of invention produce a reversal of mechanical hyperalgesia at 0.1-100 mg/kg and show a rapid onset of activity with a long duration of action.

[2] = biological target: T1, human vanilloid receptor 1 (hVR1) ion channels (Homo sapiens, UniProt Q8NER1); experiment: Fluorescence assay (calcium-sensitive dye) in CHO cells expressing human vanilloid receptor 1 ion channels, stimulated by capsaicin or low pH; type: cell-based; details: in vitro, VR1 ion channel block
T1 construct: expressed in transfected cells; host or cells: CHO cells
T1 sequence (Q8NER1 whole entry): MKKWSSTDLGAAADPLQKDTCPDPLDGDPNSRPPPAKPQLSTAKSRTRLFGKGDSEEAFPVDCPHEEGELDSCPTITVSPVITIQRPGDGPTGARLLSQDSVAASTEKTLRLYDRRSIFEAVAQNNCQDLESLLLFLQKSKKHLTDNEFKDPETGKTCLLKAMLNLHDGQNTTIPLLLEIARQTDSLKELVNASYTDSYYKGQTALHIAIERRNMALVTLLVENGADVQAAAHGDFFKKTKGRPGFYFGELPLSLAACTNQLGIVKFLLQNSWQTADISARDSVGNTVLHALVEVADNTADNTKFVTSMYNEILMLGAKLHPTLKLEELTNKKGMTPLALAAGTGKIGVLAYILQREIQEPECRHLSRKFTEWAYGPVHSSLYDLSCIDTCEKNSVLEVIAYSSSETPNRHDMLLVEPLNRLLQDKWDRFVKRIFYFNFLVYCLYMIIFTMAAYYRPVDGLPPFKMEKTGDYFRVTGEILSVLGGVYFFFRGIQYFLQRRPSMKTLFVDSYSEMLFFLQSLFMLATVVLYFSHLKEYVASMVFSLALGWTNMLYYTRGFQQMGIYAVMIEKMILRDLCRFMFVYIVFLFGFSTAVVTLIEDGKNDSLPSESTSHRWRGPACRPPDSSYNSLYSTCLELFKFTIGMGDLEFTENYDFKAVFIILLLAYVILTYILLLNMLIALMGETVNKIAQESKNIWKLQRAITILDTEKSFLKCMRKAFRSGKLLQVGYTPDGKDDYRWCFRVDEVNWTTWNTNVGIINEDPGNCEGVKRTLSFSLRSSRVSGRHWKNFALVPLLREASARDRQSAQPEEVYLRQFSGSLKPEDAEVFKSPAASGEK
Description: Fluorescence assay: Cultures of Chinese Hamster Ovary (CHO) cells expressing human vanilloid receptor 1 ion channels are prepared according to standard protocols [McIntyre et al., British Journal of Pharmacology 132: 1084-1094 (2001)]. The activity of test compounds are investigated using a fluorescence assay utilising calcium sensitive dyes to measure changes in [Ca^2+]i. The cells are plated at a density of 25,000 per well on 96 well Costar black, clear bottomed plates cultured at 37° C. in 5% CO2 in MEM medium overnight. On the day of the assay, cells are incubated in either 2 μM fura-2/AM or 2 μM fura-6F (Molecular Probes) made up in assay buffer [Hank's Balanced Salt Solution (HBSS, Invitrogen) containing 10 mM N-2-(hydroxyethylpiperazine-N′-[2-ethanesulfonic acid) (HEPES), pH 7.4] containing 0.01% pluronic F-127 for 30 min at room temperature. […] The fluorescence is measured over 1 min at 4 s intervals using excitation wavelengths of 340 and 380 nm and emission of 520 nm. […] The ratio of fluorescence intensities following excitation at 340 and 380 nm is calculated for each time point. The agonist-evoked response is calculated as the mean of the ratios in the four time-points following stimulation minus the basal ratio.

[3] = biological target: rat VR1 (Rattus norvegicus, UniProt O35433); experiment: Fluorescence assay, rat VR1; type: cell-based; details: in vitro, VR1 ion channel block
Chain of rat VR1 (O35433 whole entry): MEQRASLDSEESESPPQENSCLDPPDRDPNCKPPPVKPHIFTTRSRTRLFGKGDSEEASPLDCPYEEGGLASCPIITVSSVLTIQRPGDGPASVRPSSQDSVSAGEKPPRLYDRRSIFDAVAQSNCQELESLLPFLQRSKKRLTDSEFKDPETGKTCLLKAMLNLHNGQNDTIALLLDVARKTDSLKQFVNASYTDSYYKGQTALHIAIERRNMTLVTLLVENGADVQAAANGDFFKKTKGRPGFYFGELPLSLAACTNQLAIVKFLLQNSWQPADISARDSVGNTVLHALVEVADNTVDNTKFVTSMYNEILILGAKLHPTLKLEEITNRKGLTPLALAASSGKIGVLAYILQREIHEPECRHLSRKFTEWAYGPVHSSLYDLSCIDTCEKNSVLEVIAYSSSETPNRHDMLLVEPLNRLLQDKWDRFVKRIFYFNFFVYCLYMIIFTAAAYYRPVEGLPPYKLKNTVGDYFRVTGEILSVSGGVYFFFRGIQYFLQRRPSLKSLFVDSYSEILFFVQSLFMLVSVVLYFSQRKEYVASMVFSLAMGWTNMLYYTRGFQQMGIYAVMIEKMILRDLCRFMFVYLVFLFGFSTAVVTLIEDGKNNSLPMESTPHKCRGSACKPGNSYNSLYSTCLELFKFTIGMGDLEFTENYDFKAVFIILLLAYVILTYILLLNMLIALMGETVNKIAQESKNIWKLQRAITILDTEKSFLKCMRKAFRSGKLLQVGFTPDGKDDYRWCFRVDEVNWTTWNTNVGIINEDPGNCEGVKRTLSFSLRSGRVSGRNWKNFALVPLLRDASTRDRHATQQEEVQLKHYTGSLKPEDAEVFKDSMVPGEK

CC(C)(C)c1nc2[nH]c(=S)[nH]c(=O)c2cc1-c1ccc(Cl)cc1 [Example 2, 7-.tert.-butyl-6-(4-chlorophenyl)-2-thioxo-2,3-dihydro-1.H.-pyrido[2,3-.d.]pyrimidin-4-one]
duration of effect on paw withdrawal thresholds [1]: at least 6 h | effect on paw withdrawal thresholds [1]: dose-dependently reduces paw withdrawal thresholds | IC50 [2]: 65.1 nM | IC50 [3]: 19.2 nM
